Drawing on patent US20110217300A1, “Quinazolinone Compounds and Methods of Use Thereof” (priority 2007, published 2011), this text covers IC50 and GI50 for 21 compounds.

One test addresses T1, HsEg5 (Homo sapiens, UniProt P52732).
T1 sequence (P52732 18-359 limits assumed): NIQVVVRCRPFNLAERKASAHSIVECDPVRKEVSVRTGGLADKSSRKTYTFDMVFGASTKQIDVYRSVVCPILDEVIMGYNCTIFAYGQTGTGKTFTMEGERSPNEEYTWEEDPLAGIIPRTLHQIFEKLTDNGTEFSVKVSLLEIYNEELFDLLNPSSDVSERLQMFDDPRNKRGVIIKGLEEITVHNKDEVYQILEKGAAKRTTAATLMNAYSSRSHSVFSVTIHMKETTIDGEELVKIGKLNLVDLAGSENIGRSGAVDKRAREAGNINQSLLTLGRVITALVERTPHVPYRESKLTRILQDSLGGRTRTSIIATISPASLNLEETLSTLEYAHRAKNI
Nature of the test: Fluorescence detection of HsEg5 ATPase activity (ADP Quest, automated). The format is biochemical. The essentials:
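Microtubule-activated HsEg5 motor fragment (10 nM, 500 nM MTs) preincubated 10 min with compound, then 20 μM ATP for 10 min at room temperature in Pipes pH 7.0, MgCl2, paclitaxel, 0.3% DMSO. ADP detected via coupled-enzyme resorufin fluorescence; IC50 over 100 μM–5 nM.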

The subject of another test is NCI-H460. Nature of the test: MTS cell viability assay. Type of test: cell-based, human. The conditions noted are these: Homo sapiens, NCI-H460, 72 h. The gist of the method:
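Growth inhibition is assessed by MTS conversion in human cancer cells cultured in DMEM with 10% FBS. Compound exposure lasts 72 h at 0.33% final DMSO, and GI50 is derived from […] readings.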

A further test concerns A549. Nature of the test: MTS cell viability assay. Type of test: cell-based. The conditions noted are these: Homo sapiens, A549 non small cell lung, 72 hours, read-out: MTS NCI A549 GI50. The essentials:
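A549 and a second human cancer line seeded in DMEM/10% FBS, allowed 16–24 h to attach, then exposed 72 h at 37 °C, 5% CO2 to serially diluted compound (final DMSO 0.33%). Viability measured by MTS.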
(In general: Formazan colour is commonly taken as a measure of viable cells.)

[1] abbreviates: read-out: MTS NCI H460 GI50, NCI-H460 non small cell lung, 72 hours.

The IC50 is the concentration that inhibits the measured activity by half. By GI50 is commonly meant the concentration that inhibits growth by half.

Each structure is given as a SMILES string. Where two headings read alike, the source gives them in different places.

In turn, `CCC(c1nc2cc(Cl)ccc2c(=O)n1Nc1ccccc1)N(CCCN)C(=O)c1ccc(I)cc1` (stereo not drawn) [Compound 15, N-(3-Aminopropyl)-N-[1-(3-anilino-7-chloro-4-oxo-3,4-dihydroquinazolin-2-yl)propyl]-4-iodobenzamide] registered an IC50 against HsEg5 of 1650 nM. The concentration for 50% growth inhibition (GI50) in the test on NCI-H460 (setting [1]) was determined as 2270 nM; with A549 (A549, 72 h), 3.08 µM.
In turn, `NCCCN(C(=O)c1ccc(F)cc1)C(Cc1cccs1)c1nc2cc(Cl)ccc2c(=O)n1Nc1ccccc1` (stereo not drawn) [Compound 51, N-(3-Aminopropyl)-N-[1-(3-anilino-7-chloro-4-oxo-3,4-dihydroquinazolin-2-yl)-2-(2-thienyl)ethyl]-4-fluorobenzamide] gave an IC50 against HsEg5 of 2800 nM. In addition, the GI50 in the test with NCI-H460 (read-out: MTS NCI H460 GI50) is 5380 nM; with A549, 4.45 µM.
For `CCC(c1nc2cc(Cl)ccc2c(=O)n1Nc1ccccc1)N(CCCN)C(=O)c1ccc(Cl)cc1` (stereo not drawn) [Compound 4, N-(3-Aminopropyl)-N-[1-(3-anilino-7-chloro-4-oxo-3,4-dihydroquinazolin-2-yl)propyl]-4-chlorobenzamide], the concentration for half-maximal inhibition (IC50) against HsEg5 is 720 nM. For the same compound, the concentration for 50% growth inhibition (GI50) in the test with NCI-H460 (read-out: MTS NCI H460 GI50) stood at 1140 nM; in the test with A549, 2.4 µM.
Regarding `CCC(c1nc2cc(Cl)ccc2c(=O)n1Nc1ccccc1)N(CCN)C(=O)c1c(F)ccc(C)c1F` (stereo not drawn) [Compound 62, N-(2-Aminoethyl)-N-[1-(3-anilino-7-chloro-4-oxo-3,4-dihydroquinazolin-2-yl)propyl]-2,6-difluoro-3-methylbenzamide], at HsEg5, the half-inhibitory concentration (IC50) turned out to be 3740 nM. In addition, the concentration for 50% growth inhibition (GI50) in the test with NCI-H460 (read-out: MTS NCI H460 GI50) worked out at 22800 nM; in the test with A549 it was 21.7 µM.
At HsEg5, `CC(C)CC(c1nc2cc(Cl)ccc2c(=O)n1Nc1ccccc1)N(CCCN)C(=O)c1ccc(F)c(Cl)c1` (stereo not drawn) [Compound 37, N-(3-Aminopropyl)-N-[1-(3-anilino-7-chloro-4-oxo-3,4-dihydroquinazolin-2-yl)-3-methylbutyl]-3-chloro-4-fluorobenzamide] returned a concentration for half-maximal inhibition (IC50) of 1660 nM. The GI50 in the test on NCI-H460 (setting [1]) amounted to 4490 nM; in the test on A549 (A549, 72 h) it was 5.02 µM.
In turn, `CCC(c1nc2cc(Cl)ccc2c(=O)n1Nc1ccccc1)N(CCN)C(=O)c1cccc(Cl)c1F` (stereo not drawn) [Compound 64, N-(2-Aminoethyl)-N-[1-(3-anilino-7-chloro-4-oxo-3,4-dihydroquinazolin-2-yl)propyl]-3-chloro-2-fluorobenzamide] yielded an IC50 at HsEg5 of 1460 nM. For the same compound, the figures for the GI50 in the test on NCI-H460 (read-out: MTS NCI H460 GI50) and with A549 were 6810 nM and 12.6 µM, respectively.
Taken in the same sequence, the figures for `CCC(c1nc2cc(Cl)ccc2c(=O)n1Nc1ccccc1F)N(CCCN)C(=O)c1ccc(C)cc1` (stereo not drawn) [Compound 25, N-(3-Aminopropyl)-N-(1-{7-chloro-3-[(2-fluorophenyl)amino]-4-oxo-3,4-dihydroquinazolin-2-yl}propyl)-4-methylbenzamide] were 1430 nM, 959 nM and 1.52 µM.
Taken in the same sequence, the figures for `CCC(c1nc2cc(Cl)ccc2c(=O)n1Nc1ccccc1)N(CCCN)Cc1ccc(C)cc1` (stereo not drawn) [Compound 67, 2-{1-[(3-Aminopropyl)(4-methyl-benzyl)amino]propyl}-3-anilino-7-chloro-3H-quinazolin-4-one] were 8300 nM, 13100 nM and 15.5 µM.
Taken in the same sequence, the figures for `CCC(c1nc2cc(Cl)ccc2c(=O)n1Nc1cccc(F)c1)N(CCCN)C(=O)c1ccc(C)cc1` (stereo not drawn) [Compound 24, N-(3-Aminopropyl)-N-(1-{7-chloro-3-[(3-fluorophenyl)amino]-4-oxo-3,4-dihydroquinazolin-2-yl}propyl)-4-methylbenzamide] were 1050 nM, 1090 nM and 1.79 µM.
In turn, `CC(C)C(c1nc2cc(Cl)ccc2c(=O)n1Nc1ccccc1)N(CCCN)C(=O)c1cccc(F)c1F` (stereo not drawn) [Compound 42, N-(3-Aminopropyl)-N-[1-(3-anilino-7-chloro-4-oxo-3,4-dihydroquinazolin-2-yl)-2-methylpropyl]-2,3-difluorobenzamide] gave a half-maximal inhibitory concentration (IC50) against HsEg5 of 476 nM. Further, the concentration for 50% growth inhibition (GI50) with NCI-H460 (read-out: MTS NCI H460 GI50) is 2080 nM; in the test with A549 it was 4.28 µM.
Taken in the same sequence, the figures for `CCC(c1nc2cc(Cl)ccc2c(=O)n1Nc1ccccc1)N(CCCN)C(=O)c1cc(Cl)cc(Cl)c1` (stereo not drawn) [Compound 11, N-(3-Aminopropyl)-N-[1-(3-anilino-7-chloro-4-oxo-3,4-dihydroquinazolin-2-yl)propyl]-3,5-dichlorobenzamide] were 735 nM, 2440 nM and 3.01 µM.
Taken in the same sequence, the figures for `CCC(c1nc2cc(Cl)ccc2c(=O)n1Nc1ccccc1)N(CCCN)C(=O)c1ccc(F)c(Cl)c1` (stereo not drawn) [Compound 13, N-(3-Aminopropyl)-N-[1-(3-anilino-7-chloro-4-oxo-3,4-dihydroquinazolin-2-yl)propyl]-3-chloro-4-fluorobenzamide] were 749 nM, 2210 nM and 3.57 µM.
`CCC(c1nc2cc(Cl)ccc2c(=O)n1Nc1ccccc1)N(CCCN)C(=O)c1cccc(Br)c1` (stereo not drawn) [Compound 14, N-(3-Aminopropyl)-N-[1-(3-anilino-7-chloro-4-oxo-3,4-dihydroquinazolin-2-yl)propyl]-3-bromobenzamide] came in with a concentration for half-maximal inhibition (IC50) against HsEg5 of 1000 nM. The values for the GI50 in the test on NCI-H460 (read-out: MTS NCI H460 GI50) and with A549 were 3250 nM and 3.44 µM, respectively.
`CCC(c1nc2cc(Cl)ccc2c(=O)n1Nc1ccccc1)N(CCCN)C(=O)c1ccc(F)c(C)c1` (stereo not drawn) [Compound 18, N-(3-Aminopropyl)-N-[1-(3-anilino-7-chloro-4-oxo-3,4-dihydroquinazolin-2-yl)propyl]-4-fluoro-3-methylbenzamide] came in with an IC50 against HsEg5 of 1250 nM. The GI50 was 2500 nM in the test on NCI-H460 (setting [1]) and 3.92 µM in the test with A549 (A549, 72 h).
At HsEg5, `CCC(c1nc2cc(Cl)ccc2c(=O)n1OCc1ccccc1)N(CCCN)C(=O)c1ccc(C)cc1` (stereo not drawn) [Compound 32, N-(3-Aminopropyl)-N-{1-[3-(benzyloxy)-7-chloro-4-oxo-3,4-dihydroquinazolin-2-yl]propyl}-4-methylbenzamide] returned an IC50 of 1390 nM. Besides, the GI50 in the test on NCI-H460 (read-out: MTS NCI H460 GI50) came out at 956 nM; in the test on A549 it was 1.87 µM.
On HsEg5, `NCCCN(C(=O)c1cccc(F)c1F)C(Cc1cccs1)c1nc2cc(Cl)ccc2c(=O)n1Nc1ccccc1` (stereo not drawn) [Compound 50, N-(3-Aminopropyl)-N-[1-(3-anilino-7-chloro-4-oxo-3,4-dihydroquinazolin-2-yl)-2-(2-thienyl)ethyl]-2,3-difluorobenzamide] gave a half-inhibitory concentration (IC50) of 1180 nM. Also, the GI50 turned out to be 3120 nM with NCI-H460 (setting [1]) and 3.77 µM with A549 (A549, 72 h).
In turn, `CSCCC(c1nc2cc(Cl)ccc2c(=O)n1Nc1ccccc1)N(CCCN)C(=O)c1ccc(-n2cccn2)cc1` (stereo not drawn) [Compound 40, N-(3-Aminopropyl)-N-[1-(3-anilino-7-chloro-4-oxo-3,4-dihydroquinazolin-2-yl)-3-(methylthio)propyl]-4-(1H-pyrazol-1-yl)benzamide] returned a concentration for half-maximal inhibition (IC50) on HsEg5 of 2830 nM. In addition, the 50% growth inhibitory concentration (GI50) is 8350 nM in the test on NCI-H460 (read-out: MTS NCI H460 GI50) and 6.12 µM in the test on A549.
Compound `CCC(c1nc2cc(Cl)ccc2c(=O)n1Nc1ccccc1)N(CCCN)C(=O)c1ccc(F)c(F)c1` (stereo not drawn) [Compound 9, N-(3-Aminopropyl)-N-[1-(3-anilino-7-chloro-4-oxo-3,4-dihydroquinazolin-2-yl)propyl]-3,4-difluorobenzamide] came in with an IC50 against HsEg5 of 1160 nM. The 50% growth inhibitory concentration (GI50) in the test on NCI-H460 (setting [1]) is 2390 nM; in the test with A549 (A549, 72 h), 3.57 µM.
Compound `CCC(c1nc2ccc(Cl)cc2c(=O)n1Nc1ccccc1)N(CCCN)C(=O)c1ccc(C)cc1` (stereo not drawn) [Compound 27, N-(3-Aminopropyl)-N-[1-(3-anilino-6-chloro-4-oxo-3,4-dihydroquinazolin-2-yl)propyl]-4-methylbenzamide] returned a half-maximal inhibitory concentration (IC50) on HsEg5 of 1280 nM. Further, the concentration for 50% growth inhibition (GI50) was found to be 1080 nM in the test on NCI-H460 (read-out: MTS NCI H460 GI50) and 2.22 µM with A549.
At HsEg5, `Cc1ccc(C(=O)N(CCCN)C(Cc2cccs2)c2nc3cc(Cl)ccc3c(=O)n2Nc2ccccc2)cc1` (stereo not drawn) [Compound 49, N-(3-Aminopropyl)-N-[1-(3-anilino-7-chloro-4-oxo-3,4-dihydroquinazolin-2-yl)-2-(2-thienyl)ethyl]-4-methylbenzamide] returned an IC50 of 3440 nM. For the same compound, the GI50 came out at 4410 nM with NCI-H460 (setting [1]) and 4.69 µM in the test with A549 (A549, 72 h).
At HsEg5, `CSCCC(c1nc2cc(Cl)ccc2c(=O)n1Nc1ccccc1)N(CCCN)C(=O)c1ccc(C)c(F)c1F` (stereo not drawn) [Compound 39, N-(3-Aminopropyl)-N-[1-(3-anilino-7-chloro-4-oxo-3,4-dihydroquinazolin-2-yl)-3-(methylthio)propyl]-2,3-difluoro-4-methylbenzamide] returned an IC50 of 3010 nM. For the same compound, the values for the concentration for 50% growth inhibition (GI50) with NCI-H460 (read-out: MTS NCI H460 GI50) and in the test on A549 were 4490 nM and 6.09 µM, respectively.
